We go through one compound from ChEMBL document CHEMBL5247657 (J Med Chem, 2023).

Series [1] in a line: Half-life in Beagle dog at 1 mg/kg, iv measured upto 24 hrs by LC-MS/MS analysis. Particulars: in vivo. Type of series: ADME, organism-based, Canis lupus familiaris.
Series [2] is described as follows: in vivo. Particulars: Beagle, dog, po.
Series [3] can be described thus: in vivo. Conditions: Beagle, dog, po. This is another data set of the same source.
Series [4] in a line: Volume of distribution at steady state in Sprague-Dawley rat at 1 mg/kg, iv measured upto 24 hrs by LC-MS/MS analysis. It is filed as ADME, organism-based. Particulars: in vivo, read-out: Vdss.
A short description of series [5]: in vivo. Particulars: Beagle, dog, iv, 1 mg/kg.
The nature of series [6]: in vivo. Conditions: Sprague-Dawley, rat, po, 5 mg/kg.
Series [7] can be described thus: Tmax in Sprague-Dawley rat at 5 mg/kg, po measured upto 24 hrs by LC-MS/MS analysis. Type of series: ADME, organism-based. Conditions: in vivo.
Series [8] can be described thus: Half-life in Sprague-Dawley rat at 1 mg/kg, iv measured upto 24 hrs by LC-MS/MS analysis. It is filed as ADME, organism-based. Conditions: in vivo.
Series [9] can be described thus: in vivo. Particulars: Beagle, dog, po. The source holds these as a separate data set.
Series [10] is described as follows: Tmax in Beagle dog at […], po measured upto 24 hrs by LC-MS/MS analysis. Type of series: ADME, organism-based, Canis lupus familiaris. Particulars: in vivo, dose 2.5 mg/kg.
Series [11] can be described thus: Volume of distribution at steady state in Beagle dog at 1 mg/kg, iv measured upto 24 hrs by LC-MS/MS analysis. It is filed as ADME, organism-based, Canis lupus familiaris. Conditions: in vivo, read-out: Vdss.

One may read the half-life as how long it takes for the measured level to halve. A low value points to rapid decline. Broadly, the AUC(0-inf) is total exposure, with the tail of the curve extrapolated. Usually bioavailability stands for dose-corrected exposure relative to a reference, in per cent. What is called clearance is the volume of plasma or blood freed of the substance per unit of time. High values mean a high capacity for elimination, low ones a low capacity for elimination. The term Tmax denotes the time from dosing to the highest level. Usually Cmax stands for the highest concentration seen after dosing. For `C=CC(=O)N1CCC([C@@H]2CCNc3c(C(N)=O)c(-c4cc(OC)c(C)c(OC)c4)nn32)CC1`, the half-life is 150 min in [1] and 36 min in series [8]. For the same compound, the AUC(0-inf) at 24 h amounted to 2640 ng·h/mL in the series “in vivo [2]” and 964 ng·h/mL in the series “in vivo [6]”. In “in vivo [3]”, this compound came in with a bioavailability at 24 h of 43%. Further, the values for the Vd in series [4] and in [11] were 0.9 L/kg and 0.74 L/kg, respectively. Moreover, the clearance at 24 h in the series “in vivo [5]” was 6.89 mL/min/kg. In addition, the Tmax in [7] was determined as 15 min. The peak level in the series “in vivo [9]” (Cmax at 24 h) was 1250 ng/mL. For the same compound, the Tmax at 24 h in series [10] came out at 25.2 min.
